Results from patent US11633418B2, “Deoxyribonucleoside monophospate bypass therapy for mitochondrial DNA depletion syndrome” (priority 2015, dated 2023).

Test: Dissolution in liquid (water, formula or milk)
Format: physicochemical
Description: The preferred form of the administration of the deoxyribonucleoside monophosphates is in the form of disodium salts of the deoxyribonucleoside monophosphates. […] Once administered, the deoxyribonucleoside monophosphates salts convert to the free acid form. By way of example, for some of the oral administration to human patients, 2000 mg each of dTMP Na2 and dCMP Na2 were dissolved in 25 ml of water.

SMILES: Nc1ccn([C@H]2C[C@H](O)[C@@H](COP(=O)([O-])[O-])O2)c(=O)n1.[Na+].[Na+] [dCMP Na2]
- Dissolution in liquid (such as water, formula or milk): easily dissolved

SMILES: Cc1cn([C@H]2C[C@H](O)[C@@H](COP(=O)([O-])[O-])O2)c(=O)[nH]c1=O.[Na+].[Na+] [dTMP Na2]
- Dissolution in liquid (such as water, formula or milk): easily dissolved
